# T1: hCES1b (Homo sapiens, UniProt P23141)
# T1 sequence (P23141 18-567): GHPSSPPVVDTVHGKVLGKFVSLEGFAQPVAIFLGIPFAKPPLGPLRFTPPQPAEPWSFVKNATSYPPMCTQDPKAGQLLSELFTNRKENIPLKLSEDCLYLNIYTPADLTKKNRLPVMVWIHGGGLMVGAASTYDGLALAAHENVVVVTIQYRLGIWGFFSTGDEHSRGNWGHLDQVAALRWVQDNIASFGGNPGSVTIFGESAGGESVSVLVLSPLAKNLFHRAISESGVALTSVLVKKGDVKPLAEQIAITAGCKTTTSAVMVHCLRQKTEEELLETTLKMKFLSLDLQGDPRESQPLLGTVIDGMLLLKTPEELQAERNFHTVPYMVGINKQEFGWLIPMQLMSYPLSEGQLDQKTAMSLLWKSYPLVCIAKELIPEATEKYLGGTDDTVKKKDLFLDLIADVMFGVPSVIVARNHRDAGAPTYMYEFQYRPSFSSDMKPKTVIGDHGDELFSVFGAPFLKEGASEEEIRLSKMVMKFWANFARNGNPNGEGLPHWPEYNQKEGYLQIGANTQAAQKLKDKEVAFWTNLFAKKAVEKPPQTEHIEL
# T2: hCES1c (Homo sapiens, UniProt P23141)
# T2 sequence (P23141 18-566 isoform P23141-3 limits assumed): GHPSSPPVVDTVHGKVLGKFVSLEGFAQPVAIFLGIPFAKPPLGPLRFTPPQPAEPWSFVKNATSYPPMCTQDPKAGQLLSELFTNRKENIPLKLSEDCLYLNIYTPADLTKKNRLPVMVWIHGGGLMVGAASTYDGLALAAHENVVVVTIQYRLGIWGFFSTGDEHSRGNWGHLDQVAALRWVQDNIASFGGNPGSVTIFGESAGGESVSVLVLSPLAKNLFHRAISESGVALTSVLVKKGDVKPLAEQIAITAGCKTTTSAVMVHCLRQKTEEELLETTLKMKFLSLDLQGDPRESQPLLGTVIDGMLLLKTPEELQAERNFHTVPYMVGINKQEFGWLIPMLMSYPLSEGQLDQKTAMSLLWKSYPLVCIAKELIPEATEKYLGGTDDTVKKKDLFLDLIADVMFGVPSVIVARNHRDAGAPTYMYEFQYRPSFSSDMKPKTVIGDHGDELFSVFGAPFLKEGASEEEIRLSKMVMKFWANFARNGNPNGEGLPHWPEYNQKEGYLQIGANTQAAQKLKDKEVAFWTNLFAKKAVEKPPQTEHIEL
# T3: hCES2 (Homo sapiens, UniProt O00748)
# T3 sequence (O00748 27-559): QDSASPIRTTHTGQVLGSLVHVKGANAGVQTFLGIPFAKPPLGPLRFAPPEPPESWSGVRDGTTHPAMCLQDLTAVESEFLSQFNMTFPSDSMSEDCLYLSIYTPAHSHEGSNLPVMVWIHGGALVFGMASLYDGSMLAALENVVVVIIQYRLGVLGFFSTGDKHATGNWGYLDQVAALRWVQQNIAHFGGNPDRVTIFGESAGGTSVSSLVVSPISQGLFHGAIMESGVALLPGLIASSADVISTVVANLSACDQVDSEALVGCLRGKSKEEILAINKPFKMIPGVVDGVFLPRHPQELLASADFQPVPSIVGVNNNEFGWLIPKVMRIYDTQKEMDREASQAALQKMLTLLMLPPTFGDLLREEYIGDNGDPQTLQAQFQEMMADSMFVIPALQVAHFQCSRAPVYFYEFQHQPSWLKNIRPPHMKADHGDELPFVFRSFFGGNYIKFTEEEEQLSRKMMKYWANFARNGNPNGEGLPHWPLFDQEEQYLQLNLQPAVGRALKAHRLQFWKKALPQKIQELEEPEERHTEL
# Legend:
# [1] = Initial activity screening of AB-PINACA (Thomsen et al. conditions) with pHLM; assay type: in vitro ADME, human; details: 10 µM, 20 min, 37 °C, 1 µg/µL protein
# Procedure: (§1) The initial activity screening with AB-PINACA was conducted as described by Thomsen et al. with minor modifications (Thomsen et al. [2015]). […] All incubations were done in duplicate. […] Afterwards, 110 µL of 0.1% formic acid in water was added. […] Furthermore, 1 µL was analyzed by liquid chromatography–high-resolution tandem mass spectrometry (LC–HRMS/MS, apparatus details given in the Electronic Supplementary Material).
# (§2) Data analysis was based on peak areas.
# [2] = Initial activity screening of AB-PINACA (Thomsen et al. conditions) with pHLS9; assay type: in vitro ADME, human; details: 10 µM, 20 min, 37 °C, 1 µg/µL protein
# Procedure: as §1, §2
# hCES1b [3] = target: T1, hCES1b; assay: Initial activity screening of AB-PINACA (Thomsen et al. conditions) with hCES1b; assay type: in vitro ADME; parameters: purchased Corning (Amsterdam, The Netherlands); host or cells: baculovirus transfected insect cells; details: 10 µM, 20 min, 37 °C, 0.1 µg/µL protein
# Procedure: as §1, §2
# hCES1c [4] = target: T2, hCES1c; assay: Initial activity screening of AB-PINACA (Thomsen et al. conditions) with hCES1c; assay type: in vitro ADME; parameters: purchased Corning (Amsterdam, The Netherlands); host or cells: baculovirus transfected insect cells; details: 10 µM, 20 min, 37 °C, 0.1 µg/µL protein
# Procedure: as §1, §2
# hCES2 [5] = target: T3, hCES2; assay: Initial activity screening of AB-PINACA (Thomsen et al. conditions) with hCES2; assay type: in vitro ADME; parameters: purchased Corning (Amsterdam, The Netherlands); host or cells: baculovirus transfected insect cells; details: 10 µM, 20 min, 37 °C, 0.1 µg/µL protein
# Procedure: as §1, §2
# hCES2 [6] = target: T3, hCES2; assay: Initial activity screening with recombinant hCES2; details: 100 µM substrate, 30 min, 37 °C, 0.2 µg/µL protein, LC–ITMS
# hCES1b [7] = target: T1, hCES1b; assay: Initial activity screening with recombinant hCES1b; details: 100 µM substrate, 30 min, 37 °C, 0.2 µg/µL protein, LC–ITMS
# hCES1c [8] = target: T2, hCES1c; assay: Initial activity screening with recombinant hCES1c; details: 100 µM substrate, 30 min, 37 °C, 0.2 µg/µL protein, LC–ITMS
# hCES1b [9] = target: T1, hCES1b; assay: Enzyme kinetic studies of ester hydrolysis with hCES1b
# hCES1c [10] = target: T2, hCES1c; assay: Enzyme kinetic studies of ester hydrolysis with hCES1c
# [11] = Initial activity screening with pooled human liver microsomes; details: 100 µM substrate, 30 min, 37 °C, 2 µg/µL protein, LC–ITMS, mean n = 2
# [12] = Initial activity screening with pooled human liver S9 fraction; details: 100 µM substrate, 30 min, 37 °C, 2 µg/µL protein, LC–ITMS, mean n = 2
# not read [13] = substrate: COC(=O)C(Cc1ccccc1)NC(=O)c1cn(CCCCCF)c2ccccc12; assay: not read; details: other: ± S.D.; Michaelis–Menten fit, conditions of Table 1; pH 7.4
# not read [14] = substrate: C=CCCCn1cc(C(=O)N[C@H](C(=O)OC)C(C)C)c2ccccc21; assay: not read; details: other: ± S.D.; Michaelis–Menten fit, conditions of Table 1; pH 7.4
# [15] = ± S.D., peak area ratio metabolite/internal standard
molecule,measurement,setting,value
"CCCCCn1nc(C(=O)N[C@H](C(N)=O)C(C)C)c2ccccc21 [AB-PINACA, (S)-N-(1-amino-3-methyl-1-oxobutan-2-yl)-1-pentyl-1H-indazole-3-carboxamide]","Relative amount of carboxylic acid metabolite formed (head group carboxamide hydrolysis), pHLM",[1]; LC–HRMS/MS,4.3%
same,"Metabolite detection by LC–ITMS, pHLM",[1]; LC–ITMS,no AB-PINACA metabolites were detected
same,"Relative amount of carboxylic acid metabolite formed (head group carboxamide hydrolysis), pHLS9",[2]; LC–HRMS/MS,2.2%
same,"Metabolite detection by LC–ITMS, pHLS9",[2]; LC–ITMS,no AB-PINACA metabolites were detected
same,"Relative amount of carboxylic acid metabolite formed (head group carboxamide hydrolysis), hCES1b",hCES1b [3]; LC–HRMS/MS,1.4%
same,"Metabolite detection by LC–ITMS, hCES1b",hCES1b [3]; LC–ITMS,no AB-PINACA metabolites were detected
same,"Metabolite detection by LC–ITMS, hCES1c",hCES1c [4],no AB-PINACA metabolites were detected
same,"Metabolite detection by LC–ITMS, hCES2",hCES2 [5],no AB-PINACA metabolites were detected
"N-[(2S)-1-amino-3,3-dimethyl-1-oxobutan-2-yl]-1-[(4-fluorophenyl)methyl]-1H-indazole-3-carboxamide [MMB-FUBINACA]","Hydrolysis of carboxamide linker, hCES2",hCES2 [6],−
same,"Hydrolysis of carboxamide/ester in head group, hCES2",hCES2 [6],+
same,"Relative amount of hydrolysis metabolite formed, hCES2",hCES2 [6]; mean n = 2,3.2%
same,"Hydrolysis of carboxamide linker, hCES1b",hCES1b [7],−
same,"Hydrolysis of carboxamide/ester in head group, hCES1b",hCES1b [7],+
same,"Relative amount of hydrolysis metabolite formed, hCES1b",hCES1b [7]; mean n = 2,78%
same,"Hydrolysis of carboxamide linker, hCES1c",hCES1c [8],−
same,"Hydrolysis of carboxamide/ester in head group, hCES1c",hCES1c [8],+
same,"Relative amount of hydrolysis metabolite formed, hCES1c",hCES1c [8]; mean n = 2,87%
same,"Clint (relative in vitro intrinsic clearance), hCES1b",hCES1b [9]; Clint = Vmax/Km,1.7 AU/min/mg/µM
same,Km,"hCES1b [9]; read-out: Km, ester hydrolysis by hCES1b, ± S.D., Michaelis–Menten fit, conditions of Table 1",40.8 ± 15 µM
same,"Vmax (relative), ester hydrolysis by hCES1b",hCES1b [9]; [15],70.3 ± 7.6 AU/min/mg
same,"Clint (relative in vitro intrinsic clearance), hCES1c",hCES1c [10]; Clint = Vmax/Km,1.2 AU/min/mg/µM
same,Km,"hCES1c [10]; read-out: Km, ester hydrolysis by hCES1c, ± S.D., Michaelis–Menten fit, conditions of Table 1",25.7 ± 3.5 µM
same,"Vmax (relative), ester hydrolysis by hCES1c",hCES1c [10]; [15],30.7 ± 0.96 AU/min/mg
same,"Relative amount of hydrolysis metabolite formed, pHLM",[11],complete transformation
same,"Relative amount of hydrolysis metabolite formed, pHLS9",[12],complete transformation
hCES1b (Homo sapiens) (protein) GHPSSPPVVDTVHGKVLGKFVSLEGFAQPVAIFLGIPFAKPPLGPLRFTPPQPAEPWSFVKNATSYPPMCTQDPKAGQLLSELFTNRKENIPLKLSEDCLYLNIYTPADLTKKNRLPVMVWIHGGGLMVGAASTYDGLALAAHENVVVVTIQYRLGIWGFFSTGDEHSRGNWGHLDQVAALRWVQDNIASFGGNPGSVTIFGESAGGESVSVLVLSPLAKNLFHRAISESGVALTSVLVKKGDVKPLAEQIAITAGCKTTTSAVMVHCLRQKTEEELLETTLKMKFLSLDLQGDPRESQPLLGTVIDGMLLLKTPEELQAERNFHTVPYMVGINKQEFGWLIPMQLMSYPLSEGQLDQKTAMSLLWKSYPLVCIAKELIPEATEKYLGGTDDTVKKKDLFLDLIADVMFGVPSVIVARNHRDAGAPTYMYEFQYRPSFSSDMKPKTVIGDHGDELFSVFGAPFLKEGASEEEIRLSKMVMKFWANFARNGNPNGEGLPHWPEYNQKEGYLQIGANTQAAQKLKDKEVAFWTNLFAKKAVEKPPQTEHIEL,Km,not read [13],88.9 ± 18 µM
hCES1c (Homo sapiens) (protein) GHPSSPPVVDTVHGKVLGKFVSLEGFAQPVAIFLGIPFAKPPLGPLRFTPPQPAEPWSFVKNATSYPPMCTQDPKAGQLLSELFTNRKENIPLKLSEDCLYLNIYTPADLTKKNRLPVMVWIHGGGLMVGAASTYDGLALAAHENVVVVTIQYRLGIWGFFSTGDEHSRGNWGHLDQVAALRWVQDNIASFGGNPGSVTIFGESAGGESVSVLVLSPLAKNLFHRAISESGVALTSVLVKKGDVKPLAEQIAITAGCKTTTSAVMVHCLRQKTEEELLETTLKMKFLSLDLQGDPRESQPLLGTVIDGMLLLKTPEELQAERNFHTVPYMVGINKQEFGWLIPMLMSYPLSEGQLDQKTAMSLLWKSYPLVCIAKELIPEATEKYLGGTDDTVKKKDLFLDLIADVMFGVPSVIVARNHRDAGAPTYMYEFQYRPSFSSDMKPKTVIGDHGDELFSVFGAPFLKEGASEEEIRLSKMVMKFWANFARNGNPNGEGLPHWPEYNQKEGYLQIGANTQAAQKLKDKEVAFWTNLFAKKAVEKPPQTEHIEL,Km,not read [14],203 ± 43 µM
same,Km,not read [13],23.2 ± 4.1 µM

# From PMC9352624, “Going deeper into the toxicokinetics of synthetic cannabinoids: in vitro contribution of human carboxylesterases” (Archives of Toxicology, 2022)
